This data set can be described thus: Solubility of the starting material in the solvent. The data set is classed as physicochemical. As to conditions: 20° C., until clear solution. On the procedure:
Solubility of the Starting Material in the Solvent
To 1 g of HAP is added 5 ml of solvent. The mixture is stirred in a water bath at 20° C. The solvent is further slowly added under stirring until a clear solution appears.
The amount of used solvent is noted.

Take `CC(=O)c1cccc(O)c1` [HAP, 3-hydroxy-acetophenon]: the “Solvent in ml per g HAP” value was 46 ml per g HAP (solvent Acetone); 6 ml per g HAP (solvent Acetonitrile); more than 200 ml per g HAP (solvent Cyclohexane); 22 ml per g HAP (solvent DCM); 20 ml per g HAP (solvent Ethanol); 8 ml per g HAP (solvent Ether). Moreover, the “Solvent in ml per g HAP” value was found to be 10 ml per g HAP (solvent Methanol); 9 ml per g HAP (solvent Tetraglyme); 156 ml per g HAP (solvent Toluene); 20 ml per g HAP (solvent n-Heptane); 23 ml per g HAP (solvent n-Hexane).
